Reference: patent publication US20150011559A1, “ANTIMICROBIAL AGENTS” (RUTGERS, THE STATE UNIVERSITY OF NEW JERSEY, priority 2012, published 2015)
Values after ≈ are worked out from the molar mass of the structure shown. Read-outs that look alike come from different tables or passages of the source.

What was measured:
[1] = test system: methicillin-susceptible Staphylococcus aureus (MSSA); assay: Antibacterial assay (Test C), broth microdilution MIC against MSSA; type: cell-based; conditions: for MIC: Staphylococcus aureus, MSSA, read-out: MSSA MIC data
Description: (§1) Test C. Antibacterial Assay.
(§2) Antibacterial activity can be determined as per Clinical and Laboratory Standards Institute (CLSI) guidelines using a broth microdilution assay in which log-phase bacteria are grown at 37° C. in appropriate medium containing two-fold serial dilutions of a compound to yield final concentrations ranging from 256 to 0.06 μg/mL. For determination of minimal inhibitory concentration (MIC) values, bacterial growth is monitored after 24 to 48 hours by measuring optical density at 600 nm.
(§3) Using a procedure similar to Test C, representative compounds of the invention were tested against methicillin-susceptible Staphylococcus aureus (MSSA) and methicillin-resistant Staphylococcus aureus (MRSA).

[2] = test system: methicillin-resistant Staphylococcus aureus (MRSA); assay: Antibacterial assay (Test C), broth microdilution MIC against MRSA; type: cell-based; conditions: for MIC: Staphylococcus aureus, MRSA, read-out: MRSA MIC data
Description: as §1, §2, §3

[3] = minimal inhibitory concentration, broth microdilution, growth completely inhibited
[4] = minimal inhibitory concentration, broth microdilution, growth completely inhibited, listed as 51
[5] = minimal inhibitory concentration, broth microdilution, growth completely inhibited, listed as 18
[6] = minimal inhibitory concentration, broth microdilution, growth completely inhibited, listed as 46
[7] = minimal inhibitory concentration, broth microdilution, growth completely inhibited, listed as 19
[8] = minimal inhibitory concentration, broth microdilution, growth completely inhibited, listed as 43

| SMILES | MIC [1, 3] [µg/mL] | MIC [2, 3] [µg/mL] | further results |
| --- | --- | --- | --- |
| COC(=O)c1ccc(-c2ccc(C(C)(C)C)cc2)cc1Cn1ccnc1 [Code 52, methyl 3-((1H-imidazol-1-yl)methyl)-4′-(tert-butyl)-[1,1′-biphenyl]-4-carboxylate] | 1 (≈ 2.87 µM) | 2 (≈ 5.74 µM) | – |
| CC(C)(C)c1ccc(-c2cccc(CN)c2)cc1 [Code 57] | 16 (≈ 66.8 µM) | 16 (≈ 66.8 µM) | – |
| CC(C)(C)c1ccc(-c2cc(Cn3ccnc3)cc(NS(C)(=O)=O)c2)cc1 [Code 60] | – | – | MSSA MIC data [1, 4]: 16.0 µg/mL; MRSA MIC data [2, 4]: >64 µg/mL |
| CC(C)(C)c1cccc(-c2cccc(CNC(=N)N)c2)c1 [Code 24] | 2 (≈ 7.11 µM) | 8 (≈ 28.4 µM) | – |
| CC(C)(C)c1ccc(-c2cc(CNC(=N)N)cc(CNC(=N)N)c2)cc1 [Code 59] | 16 (≈ 45.4 µM) | 16 (≈ 45.4 µM) | – |
| CC(C)(C)c1ccc(-c2cc(N)cc(Cn3ccnc3)c2)cc1 [Code 59] | > 64 | – | – |
| CN(C)Cc1ccc(-c2ccc(C(C)(C)C)cc2)cc1 [Code 22] | 16 (≈ 59.8 µM) | 32 (≈ 120 µM) | – |
| COCCOCCOCCOCCOc1cc(CNC(=N)N)cc(-c2ccc(C(C)(C)C)cc2)c1 [Code 17] | 2 (≈ 4.1 µM) | 4 (≈ 8.2 µM) | – |
| N=C(N)N/N=C/c1cccc(-c2ccc(Br)cc2)c1 [Code 30] | – | – | MSSA MIC data ([1]; minimal inhibitory concentration, broth microdilution, growth completely inhibited, listed as 27): 32 µg/mL |
| CC(C)(C)c1ccc(-c2ccc(CNC(=N)N)cc2)cc1 [Code 20] | – | – | MSSA MIC data [1, 5]: 2.0 µg/mL; MRSA MIC data [2, 5]: 4.0 µg/mL |
| CC(C)(C)c1cccc(-c2ccccc2CCN)c1 [Code 38] | 32 (≈ 126 µM) | – | – |
| COc1cc(-c2ccc(C(C)(C)C)cc2)cc(Cn2ccnc2)c1OC [Code 16] | 2 (≈ 5.71 µM) | 2 (≈ 5.71 µM) | – |
| CC(C)(C)c1ccc(-c2ccc(CO)c(Cn3ccnc3)c2)cc1 [Code 56] | 2 (≈ 6.24 µM) | 8 (≈ 25 µM) | – |
| CC(C)(C)c1ccc(-c2ccc(CCN)cc2)cc1 [Code 19] | 4 (≈ 15.8 µM) | – | MRSA MIC data ([2]; minimal inhibitory concentration, broth microdilution, growth completely inhibited, listed as 17): 4.0 µg/mL |
| CC(NC(=N)N)c1cccc(-c2ccc(C(C)(C)C)cc2)c1 (centres unmarked) [Code 13] | 1 (≈ 3.38 µM) | 2 (≈ 6.77 µM) | – |
| CC(C)(C)c1csc(-c2ccc(CN=C(N)N)cc2)n1 [Code 25] | 4 (≈ 13.9 µM) | 8 (≈ 27.7 µM) | – |
| CC(C)(C)c1csc(-c2ccc(CN=C(N)N)cc2)n1 [Code 28] | – | – | MRSA MIC data ([2]; minimal inhibitory concentration, broth microdilution, growth completely inhibited, listed as 25): 8 µg/mL |
| CC(C)(C)OC(=O)NC(=N)NCc1nc(-c2ccc(C(C)(C)C)cc2)cs1 [Code 9] | 8 (≈ 20.6 µM) | – | – |
| NC(N)=NCc1cccc(-c2ccc(Br)cc2)c1 [Code 41] | – | – | MIC [1]: 4 µg/mL (≈ 13.1 µM); MIC [2]: 8 µg/mL (≈ 26.3 µM) |
| CC(C)(C)c1ccc(-c2cccc(C(=O)NC(=N)N)c2)cc1 [Code 29] | 4 (≈ 13.5 µM) | 8 (≈ 27.1 µM) | – |

| SMILES | MIC [1, 3] [µg/mL] | MIC [2, 3] [µg/mL] | further results |
| --- | --- | --- | --- |
| CC(C)(C)c1ccc(-c2ncc(CNC(=N)N)s2)cc1 [Code 11] | 8 (≈ 27.7 µM) | 32 (≈ 111 µM) | – |
| CC(C)(C)c1ccc(-c2cc(Cn3ccnc3)cc(Cn3ccnc3)c2)cc1 [Code 60] | 4 (≈ 10.8 µM) | 8 (≈ 21.6 µM) | – |
| CCC(C)NCc1cccc(-c2ccc(C(C)(C)C)cc2)c1 (centres unmarked) [Code 54] | – | – | MSSA MIC data [1, 6]: 16 µg/mL; MRSA MIC data [2, 6]: 32 µg/mL |
| O=C(Nc1nccs1)c1ccc(-c2cccc(Cn3ccnc3)c2)cc1 [Code 62] | 4 (≈ 11.1 µM) | 32 (≈ 88.8 µM) | – |
| NC(N)=NCc1cccc(-c2ccc(-c3cncs3)cc2)c1 [Code 64] | – | 32 (≈ 104 µM) | MSSA MIC data [1, 3]: 4.0 µg/mL; MSSA MIC data ([1]; minimal inhibitory concentration, broth microdilution, growth completely inhibited, listed as 54): 16 µg/mL |
| CC(C)(C)c1ccc(-c2ccnc(CN=C(N)N)c2)cc1 [Code 5] | 8 (≈ 28.3 µM) | 16 (≈ 56.7 µM) | – |
| CC(C)(C)c1csc(-c2cccc(CN=C(N)N)c2)n1 [Code 26] | 4 (≈ 13.9 µM) | 16 (≈ 55.5 µM) | – |
| CC(C)(C)c1ccc(-c2cccc(CNC(=N)N)c2)cc1 [Code 3] | – | – | MSSA MIC data ([1]; minimal inhibitory concentration, broth microdilution, growth completely inhibited, listed as 2): >64.0 µg/mL |
| CC(C)(C)c1ccc(-c2ccc(-c3cccc(CNC(=N)N)c3)cc2)cc1 [Code 43] | 1 (≈ 2.8 µM) | 2 (≈ 5.59 µM) | – |
| N=C(N)N/N=C/c1cccc(-c2ccc(Br)cc2)c1 [Code 35] | – | 4 (≈ 12.6 µM) | MSSA MIC data ([1]; minimal inhibitory concentration, broth microdilution, growth completely inhibited, listed as 30): 4.0 µg/mL |
| CC(C)(C)c1ccc(-c2cccc(CCN)c2)cc1 [Code 40] | 16 (≈ 63.1 µM) | 8 (≈ 31.6 µM) | – |
| CC(C)(C)c1ccc(-c2cc(CNC(=N)N)cc(CC(Br)Br)c2)cc1 [Code 58] | 32 (≈ 68.5 µM) | – | – |
| CC(C)(C)c1ccc(-c2ccccc2CCN)cc1 [Code 37] | 32 (≈ 126 µM) | – | – |
| CC(C)(C)c1ccc(-c2cc(CNC(=N)N)cc(-c3ccc(C(C)(C)C)cc3)c2)cc1 [Code 44] | 4 (≈ 9.67 µM) | 32 (≈ 77.4 µM) | – |
| COc1cc(CN2CCN(C)CC2)cc(-c2ccc(C(C)(C)C)cc2)c1OC [Code 42] | 2 (≈ 5.23 µM) | 4 (≈ 10.5 µM) | – |
| CC(C)(C)c1ccc(-c2cc(CNC(=N)N)cc(-c3cscn3)c2)cc1 [Code 63] | 2 (≈ 5.49 µM) | 8 (≈ 21.9 µM) | – |
| CC(C)(C)c1ccc(-c2ccc(C(=O)Nc3nccs3)c(Cn3ccnc3)c2)cc1 [Code 67] | 32 (≈ 76.8 µM) | – | – |
| CC(C)(C)c1ccc(-c2ccc(CCN)cc2)cc1 [Code 21] | – | – | MSSA MIC data [1, 7]: 8.0 µg/mL; MRSA MIC data [2, 7]: 16 µg/mL |
| CC(C)(C)c1ccc(-c2ccc3sc(CNC(=N)N)nc3c2)cc1 [Code 6] | 4 (≈ 11.8 µM) | 8 (≈ 23.6 µM) | – |
| CC(C)(C)c1ccc(-c2cccc(CNNC(=N)N)c2)cc1 [Code 31] | 2 (≈ 6.75 µM) | 4 (≈ 13.5 µM) | – |

| SMILES | MIC [1, 3] [µg/mL] | MIC [2, 3] [µg/mL] | further results |
| --- | --- | --- | --- |
| Cc1cc(C)cc(-c2cccc(CCN)c2)c1 [Code 45] | 64 (≈ 284 µM) | – | – |
| CC(C)(C)c1ccc(-c2csc(CNC(=N)N)n2)cc1 [Code 10] | 4 (≈ 13.9 µM) | 32 (≈ 111 µM) | – |
| CCC(C)NCc1cccc(-c2ccc(C(C)(C)C)cc2)c1 (centres unmarked) [Code 46] | – | 16 (≈ 54.2 µM) | MSSA MIC data ([1]; minimal inhibitory concentration, broth microdilution, growth completely inhibited, listed as 40): 4.0 µg/mL |
| CCC(C)N(Cc1cccc(-c2ccc(C(C)(C)C)cc2)c1)C(=N)N (centres unmarked) [Code 57] | > 64 | – | – |
| CC(C)(C)c1ccc(-c2cccc(CNC(=N)N)c2)cc1 [Code 4] | – | 1 (≈ 3.55 µM) | MSSA MIC data ([1]; minimal inhibitory concentration, broth microdilution, growth completely inhibited, listed as 3): 1.0 µg/mL |
| CC(C)(C)c1ccc(-c2cc(Cn3ccnc3)cc(NS(C)(=O)=O)c2)cc1 [Code 51] | – | – | MSSA MIC data [1, 8]: 1.0 µg/mL; MRSA MIC data [2, 8]: 2.0 µg/mL |
| C[N+](C)(C)c1ccc(-c2ccc(-c3ccccc3)cc2)cc1.[I-] [Code 1] | 8 | 64 | – |
| CC(C)(C)c1ccc(-c2cc(CC(Br)Br)cc(Cn3ccnc3)c2)cc1 [Code 61] | 2 (≈ 4.2 µM) | 8 (≈ 16.8 µM) | MSSA MIC data [1, 3]: 4.0 µg/mL |
| CC(C)(C)c1ccc(-c2cc(Cn3ccnc3)cc([N+](=O)[O-])c2)cc1 [Code 58] | 8 (≈ 23.9 µM) | 8 (≈ 23.9 µM) | – |
| CC(C)(C)c1ccc(-c2cccc(Cn3ccnc3)c2)cc1 [Code 47] | 8 (≈ 27.5 µM) | 16 (≈ 55.1 µM) | – |
| CC(C)(C)c1ccc(-c2cccc(/C=N/NC(=N)N)c2)cc1 [Code 12] | 2 (≈ 6.79 µM) | 8 (≈ 27.2 µM) | – |
| CC(=O)Nc1cc(Cn2ccnc2)cc(-c2ccc(C(C)(C)C)cc2)c1 [Code 63] | 16 (≈ 46 µM) | > 64 | – |
| C[N+](C)(C)c1cccc(-c2cccc(-c3cccc(-c4ccccc4)c3)c2)c1 [Code 36] | 1 | 4 | – |
| COc1cc(OC(F)(F)F)ccc1-c1cc(CN=C(N)N)cc(-c2ccc(C(C)(C)C)cc2)c1 [Code 53] | 1 (≈ 2.12 µM) | 2 (≈ 4.24 µM) | – |
| CC(C)(C)c1ccc(-c2cccc(OCCn3ccnc3)c2)cc1 [Code 15] | 4 (≈ 12.5 µM) | 4 (≈ 12.5 µM) | – |
| CC(C)(C)c1ccc(-c2cccc(Cn3cncn3)c2)cc1 [Code 66] | 16 (≈ 54.9 µM) | 16 (≈ 54.9 µM) | MRSA MIC data [2, 3]: 32 µg/mL |
| CC(C)(C)c1ccc(-c2ccc(CNC(=N)N)cc2)cc1 [Code 18] | 4 (≈ 14.2 µM) | – | MRSA MIC data ([2]; minimal inhibitory concentration, broth microdilution, growth completely inhibited, listed as 16): 16 µg/mL |
| COc1cc(-c2ccc(C(C)(C)C)cc2)cc(CNC(=N)N)c1OC [Code 14] | 2 (≈ 5.86 µM) | 8 (≈ 23.4 µM) | – |
| NC(N)=NCc1cccc(-c2ccc(-c3cscn3)cc2)c1 [Code 65] | – | 32 (≈ 104 µM) | MSSA MIC data [1, 3]: 8.0 µg/mL; MSSA MIC data ([1]; minimal inhibitory concentration, broth microdilution, growth completely inhibited, listed as 55): 32 µg/mL |
| CN(C)Cc1ccc(-c2ccc(C(C)(C)C)cc2)cc1CN=C(N)N [Code 23] | 4 (≈ 11.8 µM) | 8 (≈ 23.6 µM) | – |
